Measured values as given in patent publication US12275735B2, “Ergoline analogues” (BECKLEY PSYTECH LIMITED, priority 2021, dated 2025).

What was measured:
Format in all cases: cell-based
Human 5-HT2A Receptor [1] = target: T1, Human 5-HT2A Receptor (Homo sapiens, UniProt P28223); assay: Serotonin receptor inositol phosphate 1 (IP1) assay (Multispan); settings: 5-HT 2a receptor; reference 1 μM serotonin; FIG. 2
T1 construct: host or cells: CHO-K1
Protocol: (§1) Compounds 018 and 019 were assayed using a serotonin (2a, 2b and 2c receptors) inositol phosphate 1 (IP1) assay, provided by Multispan. The reference used was 1 μM serotonin to calculate the percentage relative response. The results can be seen in FIG. 2. Both compounds appear to some activity against all three target receptors in this assay.
(§2) IP-One Gq kit—cisbio—cat. No. 62IPAPEB
(§3) MULTISCREEN™ CHO-K1 Cell Line Stably Expressing Human 5-HT2A Receptor, Catalog DC1324-1

Human 5-HT2B Receptor = target: T2, Human 5-HT2B Receptor (Homo sapiens, UniProt P41595); assay: as above; settings: 5-HT 2b receptor; reference 1 μM serotonin; FIG. 2
T2 construct: host or cells: CHO-K1
Protocol: as §1, §2
MULTISCREEN™ CHO-K1 Cell Line Stably Expressing Human 5-HT2B Receptor, Catalog DC1325-1

Human 5-HT2C Receptor [2] = target: T3, Human 5-HT2C Receptor (Homo sapiens, UniProt P28335); assay: as above; settings: 5-HT 2c receptor; reference 1 μM serotonin; FIG. 2
T3 construct: host or cells: CHO-K1
T3 sequence (P28335 33-458): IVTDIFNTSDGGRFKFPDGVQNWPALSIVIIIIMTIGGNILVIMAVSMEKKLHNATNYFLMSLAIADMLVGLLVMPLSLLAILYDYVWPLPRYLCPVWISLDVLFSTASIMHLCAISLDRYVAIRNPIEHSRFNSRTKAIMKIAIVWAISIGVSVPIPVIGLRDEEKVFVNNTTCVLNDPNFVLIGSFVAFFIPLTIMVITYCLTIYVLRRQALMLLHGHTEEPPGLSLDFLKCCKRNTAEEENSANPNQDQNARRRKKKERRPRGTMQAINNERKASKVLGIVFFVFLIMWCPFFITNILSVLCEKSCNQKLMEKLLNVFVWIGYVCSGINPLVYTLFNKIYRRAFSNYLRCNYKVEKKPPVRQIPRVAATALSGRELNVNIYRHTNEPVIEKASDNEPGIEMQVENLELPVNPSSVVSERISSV
Protocol: as §1, §2
(§4) MULTISCREEN™ CHO-K1 Cell Line Stably Expressing Human 5-HT2C Receptor, Catalog DC1326-1

Human 5-HT2A Receptor [3] = target: T1, Human 5-HT2A Receptor; assay: Serotonin receptor calcium (Ca2+) assay (Multispan, FLIPR); settings: 5-HT 2a receptor; reference 10 μM serotonin; FIG. 3
Protocol: (§5) Compounds 018 and 019 were assayed using a serotonin (2a, 2b and 2c receptors) calcium (Ca^2+) assay, provided by Multispan. The reference used was 10 μM serotonin to calculate the percentage relative response in relative light units (RLU). The results can be seen in FIG. 3. Both compounds have some activity against the 2a and 2c receptors.
(§6) FLIPR calcium 6 assay explorer kit—VWR—cat. No. MLDVR8190
as §3

Human 5-HT2C Receptor [4] = target: T3, Human 5-HT2C Receptor; assay: as above; settings: 5-HT 2c receptor; reference 10 μM serotonin; FIG. 3
Protocol: as §5, §6, §4

HTR1A = target: T4, HTR1A (Homo sapiens, UniProt P08908); assay: Serotonin receptor B-arrestin assay (DiscoverX PathHunter); settings: 5-HT 1a receptor; reference 10 μM serotonin; FIG. 4
T4 construct: host or cells: CHO-K1
T4 sequence (P08908 1-422): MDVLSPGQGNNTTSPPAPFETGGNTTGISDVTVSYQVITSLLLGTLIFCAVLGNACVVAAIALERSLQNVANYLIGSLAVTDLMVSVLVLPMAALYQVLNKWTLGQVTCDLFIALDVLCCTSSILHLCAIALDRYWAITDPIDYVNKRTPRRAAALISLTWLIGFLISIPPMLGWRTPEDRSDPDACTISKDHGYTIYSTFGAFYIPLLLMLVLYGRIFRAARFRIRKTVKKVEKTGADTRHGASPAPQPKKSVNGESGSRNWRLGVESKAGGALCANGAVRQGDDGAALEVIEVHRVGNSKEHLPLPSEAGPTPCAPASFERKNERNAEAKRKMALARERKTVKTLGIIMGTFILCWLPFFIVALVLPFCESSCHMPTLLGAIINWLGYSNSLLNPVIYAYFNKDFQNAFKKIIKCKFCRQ
Protocol: (§7) Compounds 018 and 019 were assayed using a serotonin (1a, 1b, 2a and 2c receptors) B-arrestin assay, provided by DiscoverX. The reference used was 10 μM serotonin to calculate the percentage relative response. The results can be seen in FIG. 4.
(§8) For the B-arrestin assays the cells came with the kits apart from the 2b receptor assay (Valiscreen serotonin 5HT-26 (human) cell line—ES-314-C, Perkin Elmer).

HTR1B = target: T5, HTR1B (Homo sapiens, UniProt P28222); assay: as above; settings: 5-HT 1b receptor; reference 10 μM serotonin; FIG. 4
T5 construct: host or cells: U2OS
Protocol: as §7, §8

HTR2A = target: T6, HTR2A (Homo sapiens, UniProt P28223); assay: as above; settings: 5-HT 2a receptor; reference 10 μM serotonin; FIG. 4
T6 construct: host or cells: U2OS
Protocol: as §7, §8

HTR2C = target: T7, HTR2C (Homo sapiens, UniProt P28335); assay: as above; settings: 5-HT 2c receptor; reference 10 μM serotonin; FIG. 4
T7 construct: host or cells: U2OS
T7 sequence (P28335 33-458): T3 sequence (P28335 33-458)
Protocol: as §7, §8

Human 5-HT1A Receptor = target: T8, Human 5-HT1A Receptor (Homo sapiens, UniProt P08908); assay: Serotonin receptor cAMP assay (Multispan, HTRF); settings: 5-HT 1a receptor; reference 10 μM forskolin, serotonin control; FIG. 1
T8 construct: host or cells: HEK293T
T8 sequence (P08908 1-422): T4 sequence (P08908 1-422)
Protocol: (§9) Compounds 018 (above, left) and 019 (above, right) were assayed using a serotonin (1a, 1b, 2a, 2c and 7 receptors) cAMP assay, provided by Multispan. The reference used was 10 μM forskolin (a cAMP activator) to calculate the percentage relative response, serotonin was used as the control. The results can be seen in FIG. 1. Compound 019 was active against in all other receptor assays.
(§10) cAMP Gs dynamic kit—cisbio—cat. No. 62AM4PEC
MULTISCREEN™ HEK293T Cell Line Stably Expressing Human 5-HT1A Receptor, Catalog DC1319a

Human 5-HT1B Receptor = target: T9, Human 5-HT1B Receptor (Homo sapiens, UniProt P28222); assay: Serotonin receptor cAMP assay (Multispan, HTRF); settings: 5-HT 1b receptor; reference 10 μM forskolin, serotonin control; FIG. 1
T9 construct: host or cells: HEK293T
Protocol: as §9, §10
MULTISCREEN™ HEK293T Cell Line Stably Expressing Human 5-HT1B Receptor, Catalog DC1320a
MULTISCREEN™ HEK293T Cell Line Stably Expressing Human 5HT1B Receptor, Catalog DC1320a

Human 5-HT2A Receptor [5] = target: T1, Human 5-HT2A Receptor; assay: Serotonin receptor cAMP assay (Multispan, HTRF); settings: 5-HT 2a receptor; reference 10 μM forskolin, serotonin control; FIG. 1
Protocol: as §9, §10, §3

Human 5-HT2C Receptor [6] = target: T3, Human 5-HT2C Receptor; assay: Serotonin receptor cAMP assay (Multispan, HTRF); settings: 5-HT 2c receptor; reference 10 μM forskolin, serotonin control; FIG. 1
Protocol: as §9, §10, §4

Human 5-HT7 Receptor = target: T10, Human 5-HT7 Receptor (Homo sapiens, UniProt P34969); assay: Serotonin receptor cAMP assay (Multispan, HTRF); settings: 5-HT 7 receptor; reference 10 μM forskolin, serotonin control; FIG. 1
T10 construct: host or cells: HEK293T
Protocol: as §9, §10
MULTISCREEN™ HEK293T Cell Line Stably Expressing Human 5-HT7 Receptor, Catalog DC1334

T1 sequence (P28223 whole entry): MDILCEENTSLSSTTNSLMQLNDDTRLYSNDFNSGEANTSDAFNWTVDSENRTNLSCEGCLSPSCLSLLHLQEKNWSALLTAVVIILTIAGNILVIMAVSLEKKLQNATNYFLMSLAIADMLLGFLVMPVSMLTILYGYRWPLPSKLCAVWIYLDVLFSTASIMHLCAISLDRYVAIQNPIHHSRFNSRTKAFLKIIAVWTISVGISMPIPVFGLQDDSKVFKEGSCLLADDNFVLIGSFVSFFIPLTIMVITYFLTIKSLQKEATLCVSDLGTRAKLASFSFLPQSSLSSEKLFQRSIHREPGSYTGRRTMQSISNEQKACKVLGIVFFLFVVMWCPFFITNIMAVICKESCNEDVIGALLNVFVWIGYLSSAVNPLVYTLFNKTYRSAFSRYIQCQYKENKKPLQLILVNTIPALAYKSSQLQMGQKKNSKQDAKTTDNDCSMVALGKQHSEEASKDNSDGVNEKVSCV
T6 sequence (P28223 whole entry): as above
T5 sequence (P28222 whole entry): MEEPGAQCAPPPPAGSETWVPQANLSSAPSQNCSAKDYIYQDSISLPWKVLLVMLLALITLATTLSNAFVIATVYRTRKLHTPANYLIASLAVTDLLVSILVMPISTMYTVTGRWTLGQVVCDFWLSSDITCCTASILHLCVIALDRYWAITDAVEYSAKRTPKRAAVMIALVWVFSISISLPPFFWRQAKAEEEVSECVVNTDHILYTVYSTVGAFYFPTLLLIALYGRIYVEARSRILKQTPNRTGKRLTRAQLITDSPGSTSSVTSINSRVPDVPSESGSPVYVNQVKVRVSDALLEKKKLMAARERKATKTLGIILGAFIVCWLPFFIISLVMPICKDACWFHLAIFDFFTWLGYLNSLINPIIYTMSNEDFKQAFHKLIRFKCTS
T2 sequence (P41595 whole entry): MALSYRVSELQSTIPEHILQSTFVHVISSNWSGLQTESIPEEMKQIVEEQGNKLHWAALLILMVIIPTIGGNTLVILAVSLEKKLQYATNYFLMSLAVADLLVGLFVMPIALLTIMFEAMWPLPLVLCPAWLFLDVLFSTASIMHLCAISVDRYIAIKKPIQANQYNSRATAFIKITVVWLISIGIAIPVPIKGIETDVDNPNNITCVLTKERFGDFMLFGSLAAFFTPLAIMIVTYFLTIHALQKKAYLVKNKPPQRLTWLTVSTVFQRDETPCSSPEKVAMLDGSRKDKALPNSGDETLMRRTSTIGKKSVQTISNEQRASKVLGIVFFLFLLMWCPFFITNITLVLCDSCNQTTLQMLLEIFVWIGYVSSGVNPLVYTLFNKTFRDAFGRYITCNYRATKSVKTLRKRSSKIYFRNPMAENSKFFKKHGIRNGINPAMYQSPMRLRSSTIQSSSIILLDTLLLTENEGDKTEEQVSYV
T10 sequence (P34969 whole entry): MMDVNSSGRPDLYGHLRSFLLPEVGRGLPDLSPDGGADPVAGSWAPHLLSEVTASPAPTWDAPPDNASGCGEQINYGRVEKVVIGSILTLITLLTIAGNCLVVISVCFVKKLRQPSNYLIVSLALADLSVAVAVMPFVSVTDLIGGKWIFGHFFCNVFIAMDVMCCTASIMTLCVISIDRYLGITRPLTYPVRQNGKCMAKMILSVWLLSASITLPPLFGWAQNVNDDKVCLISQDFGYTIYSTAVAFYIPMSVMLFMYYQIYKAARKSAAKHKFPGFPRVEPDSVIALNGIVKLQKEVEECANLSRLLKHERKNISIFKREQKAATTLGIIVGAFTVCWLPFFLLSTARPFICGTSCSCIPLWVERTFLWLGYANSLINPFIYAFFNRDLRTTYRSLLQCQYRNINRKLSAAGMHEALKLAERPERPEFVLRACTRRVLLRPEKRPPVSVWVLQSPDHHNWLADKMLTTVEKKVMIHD
T9 sequence (P28222 whole entry): as the sequence (P28222 whole entry) above

Structure (SMILES) | IP1 assay activity (Human 5-HT2A Receptor [1]) | IP1 assay activity (Human 5-HT2B Receptor) | IP1 assay activity (Human 5-HT2C Receptor [2]) | Calcium (Ca2+) assay activity (Human 5-HT2A Receptor [3]) | Calcium (Ca2+) assay activity (Human 5-HT2C Receptor [4]) | B-arrestin assay activity (HTR1A) | B-arrestin assay activity (HTR1B) | B-arrestin assay activity (HTR2A) | B-arrestin assay activity (HTR2C) | cAMP assay activity (Human 5-HT1A Receptor) | cAMP assay activity (Human 5-HT1B Receptor) | cAMP assay activity (Human 5-HT2A Receptor [5]) | cAMP assay activity (Human 5-HT2C Receptor [6]) | cAMP assay activity (Human 5-HT7 Receptor)
CCCCCN(C(=O)[C@@H]1C=C2c3cccc4[nH]cc(c34)C[C@H]2N(C)C1)C(C)C [Compound 018, (4R,6R,7R)-6-methyl-4-[pentyl(propan-2-yl)carbamoyl]-6,11-diazatetra-cyclo[7.6.1.0^2,^7.0^12,^16] hexadeca-1(16),2,9,12,14-pentaen-6-ium] | some activity | some activity | some activity | some activity | some activity | some activity | some activity | some activity | some activity | – | – | – | – | –
CC(C)NC(=O)[C@@H]1C=C2c3cccc4[nH]cc(c34)C[C@H]2N(C)C1 [Compound 019, (4R,6R,7R)-6-methyl-4-[(propan-2-yl)carbamoyl]-6,11-diazatetra-cyclo[7.6.1.0^2,^7^7.0^12,^16] hexadeca-1(16),2,9,12,14-pentaen-6-ium] | some activity | some activity | some activity | some activity | some activity | some activity | some activity | some activity | some activity | active | active | stimulates the 5HT2aR leading to downstream activation of cAMP | active | active
